Data taken from patent US20220054496A1, “MODULATION OF TRF1 FOR BRAIN CANCER TREATMENT” (Fundación Del Sector Público Estatal Centro Nacional De …, priority 2018, published 2022).
Entries after “also recorded” stand apart in the source; their conditions may differ.

How the values were obtained:
TRF1 [1] = assay: TRF1 nuclear immunofluorescence (TRF1 foci) in U251 cells; format: cell-based, human; conditions: 10 μM, 24 h or 48 hr
Experimental: For immunofluorescence analyses, cells were plated in a proper density in cell culture μCLEAR plates (Greiner) and fixed in 4% formaldehyde in PBS. Cells were permeabilized with 0.25% Triton in PBS and blocked with 5% BSA in PBS. Tissue sections were fixed in 10% buffered formalin (Sigma) and embedded in paraffin. After deparaffinization and citrate antigen retrieval, sections were permeabilized with 0.5% Triton in PBS and blocked with 1% BSA and 10% Australian FBS ([…]) in PBS. The antibodies were applied overnight in antibody diluents with background reducing agents (Invitrogen).
Immunofluorescence images were obtained using a confocal ultraspectral microscope (Leica TCS-SP5) or the Opera High Content Screening (HCS) system (Perkin Elmer). Quantifications were performed with Definiens software.
(§1) For in vitro studies, ETP-47228 ETP-47037 and ETP-50946 were dissolved in DMSO at a final concentration of 10 or 5 mM. Cells were treated at a concentration of 10 μM for 24 h or 48 hr.
(§2) To address whether these small molecules could represent a new therapeutic strategy for the treatment of GBM, the present inventors first tested the ability of the three independent TRF1 inhibitory molecules (ETP-47228, ETP-47037 and ETP-50946) to downregulate TRF1 protein levels in the U251 human GBM cell line.

TRF1 [2] = assay: Western blot of total TRF1 protein in U251 cells; format: cell-based, human; conditions: 10 μM, 24 h or 48 hr
Experimental: (§3) Nuclear protein extracts were obtained using Nuclear Cytosolic Fractionation Kit (Biovision) and protein concentration was determined using the Bio-Rad DC Protein Assay (Bio-Rad). Up to 15 μg of protein per extract were separated in SDS-polyacrylamide gels by electrophoresis. After protein transfer onto nitrocellulose membrane (Whatman), the membranes were incubated with the indicated antibodies. Antibody binding was detected after incubation with a secondary antibody coupled to horseradish peroxidase using chemiluminescence with ECL detection KIT (GE Healthcare)
Quantifications: Protein-band intensities were measured with ImageJ software and normalized against the loading control.
as §1, §2

U251 cells = assay: Neurosphere formation assay in U251 cells; format: cell-based, human; conditions: U251 in NSC media; seven days; vs DMSO
Experimental: (§4) Spheres were dissociated into single cells and seeded at a density of 50, 100, 200 and 400 cells/well in a 96 well plate. Neurosphere number was assessed after 7 days. Pictures were taken using Nikon Eclipse Ti-U microscope and neurosphere diameter was measured using NIS Elements BR software.
Finally, the present inventors checked if the three chemical compounds had the ability to reduce sternness in these cells. They cultured U251 cells with NSC media in order to obtain a suspension culture enriched in stem cells. The inventors performed a sphere formation assay with these cells treated with ETP-47228, ETP-47037 and ETP-50946 or DMSO for seven days. […] Of note, all these effects recapitulated what the present inventors observed with Trf1 genetic downregulation (See 2.2).

h676 GSCs [3] = assay: Sphere formation assay in patient-derived h676 GSCs; format: cell-based, human; conditions: for diameter of spheres / number of spheres: vs untreated controls; for sphere formation, dose-response: 7 days
Experimental: (§5) FIG. 48. […] (A) Dose-response curves of the h676 GSCs treated 7 days with the indicated compounds. (B) Dose-response curves of the h543 GSCs treated 7 days with the indicated compounds. Data are represented as mean±SD.
as §4
(§6) Given the promising results the present inventors obtained with the TRF1 chemical modulators in the U251 GBM cell line, the present inventors next set to address the effects of these compounds in two independent patient-derived primary GSCs (h543 and h676) cultures.
(§7) Next, the present inventors set to address whether the different compounds were able to block sphere formation in the h676 and h543 GSCs.

h543 GSCs = assay: Sphere formation assay in patient-derived h543 GSCs; format: cell-based, human; conditions: for diameter of spheres / number of spheres: vs untreated controls; for sphere formation, dose-response: 7 days
Experimental: as §5, §4, §6, §7

TRF1 [4] = assay: Screening of ETP-antitumoral library / phenotypic assay of TRF1 levels in CHA-9.3 cells; format: cell-based, mouse; conditions: for inhibition of TRF1 protein levels / TRF1 modulation in the screening: CHA-9.3 mouse lung cancer cell line, 1 μM, 24 h; for modulation of TRF1 levels by tubulin agents (validation): immunofluorescence
Experimental: All of them were tested at 1 μM during 24 h in the phenotypic assay that measure TRF1 levels.

TRF1 [5] = assay: Western blot of TRF1 protein levels in h676 GSCs; format: cell-based, human; conditions: 1 μM, 24 h
Experimental: FIG. 46. Screening of ETP-antitumoral library: Identification of TRF1 modulators in compounds approved by FDA or in clinical trials. (A) Drugs in ETP-antitumoral library distribution in Reactome Pathways. (B) Opera High ContentScreening system was used to identify compounds with the ability to inhibit TRF1, from representative images of confocal validation obtained from cells treated with DMSO (upper photograph of the right side of the panel and b) 1 μM of the tested compound, and determining the signal corresponding to TRF1 foci; TRF1 foci (green signal) can be appreciated clearly in the upper on the nuclear staining with DAPI (blue signal), but they have decreased in the lower photograph. (C) Representation of the inhibition of TRF1 levels by drugs belonging to different signaling pathways that modulate TRF1 at telomeres. Bar fillings vary depending on the signaling pathway. The results corresponding to three PI3K inhibitors inside the ETP-antitumoral library are represented by the three first bars from the right, validating the screening. (D) Structurally diverse MEK inhibitors tested in the chemical biology validation of the MEK/ERK pathway as modulator of TRF1 levels. (E) Structurally diverse ERK inhibitors tested in the chemical biology validation of the MEK/ERK pathway as modulator of TRF1 levels. (F) Inhibition of TRF1 levels by the MEK and ERK inhibitors represented in (D) and (E), respectively, measured by immunofluorescence. (G) Structurally diverse HSP90 inhibitors tested in the chemical biology validation of HSP90 pathway as modulator of TRF1 levels. (H) Inhibition of TRF1 levels by the HSP90 inhibitors represented in (G), measured by immunofluorescence. (I) Structurally diverse tubulin agent tested in the chemical biology validation of tubulin agents as modulator of TRF1 levels. (J) Inhibition of TRF1 levels by the tubulin agents represented in (I), measured by immunofluorescence. (K) Western Blot (up) and quantification (down) of TRF1 protein levels in the h676 GSCs after 24 h treatment with 1 μM of the indicated compounds. Data are represented as mean±SD. n represents biological replicates. Statistical analysis: unpaired t-test.
as §3
The present inventors treated GSCs for 24 h at 1 μM concentration and assessed TRF1 protein levels by western blot.

p-AKT = p-AKT activation (p-AKT/AKT western blot) in h676 GSCs; format: cell-based, human; conditions: 1 μM, 24 h
Experimental: FIG. 47. […] Western Blot (up) and quantification (down) of p-AKT/AKT ratio in the h676 GSCs after 24 h treatment with 1 μM of the indicated compounds. Data are represented as mean±SD. n represents biological replicates.
The present inventors have confirmed the modulation of TRF1 through the PI3K-AKT pathway (Méndez-Pertuz et al., 2017). In order to check whether the novel compounds act independently of this pathway, the present inventors treated the cells for 24 h at 1 μM concentration and checked p-AKT activation. They also included in this analysis some compounds previously identified by the same research group: namely ETP-47037 (PI3Ki) (García-Beccaria et al., 2015), and ETP-50946 (FIG. 47, right graph of the lower part).

h676 GSCs [6] = assay: Drug combination studies (sphere number and diameter) in h676 GSCs; format: cell-based, human; conditions: number and diameter of spheres, 7 days
Description: FIG. 51. […] (A-F) Quantification of number of spheres (up) and diameter (down) in h676 GSCs treated with the indicated compounds. Representative image of the spheres (left). Data are represented as mean±SD (up) or mean±SD (down), n represents biological replicates (up) or number of spheres (down). Statistical analysis: unpaired t-test.
Using this concentration as a reference point, the present inventors designed a combinatorial matrix using different concentrations of the compounds (e.g. 2×GI50, GI50 and ½ GI50) to study all the possible combinations. Combination index is calculated to establish if the combination is synergistic, additive or antagonistic (FIG. 50A).

[7] = system: K-Ras^G12V-induced lung tumors; conditions: p53-deficient background; cited from earlier work

NC(Cc1ccccc1)c1csc(Nc2ncccn2)n1 (racemic) [ETP-50946]
TRF1 foci (immunofluorescence) (TRF1 [1]): effectively reduced
total TRF1 protein levels (western blot) (TRF1 [2]): effectively reduced
diameter of neurospheres (U251 cells): strong reduction
number of neurospheres (U251 cells): strong reduction
diameter of spheres (h676 GSCs [3]): significant drastic reduction
number of spheres (h676 GSCs [3]): significant drastic reduction
diameter of spheres (h543 GSCs): significant drastic reduction
number of spheres (h543 GSCs): significant drastic reduction

COc1cc(Nc2ncc3c(n2)-c2ccc(Cl)cc2C(c2c(F)cccc2OC)=NC3)ccc1C(=O)O [Alisertib]
inhibition of TRF1 protein levels / TRF1 modulation in the screening (TRF1 [4]): inhibit TRF1 protein levels; also recorded: novel TRF1 modulators
degree of TRF1 inhibition (TRF1 protein levels by western blot) (TRF1 [5]): no ability to downregulate TRF1
dependence on p-AKT (p-AKT activation) (p-AKT): act independently of p-AKT

CC(=O)O[C@@]12CO[C@@H]1C[C@H](O)[C@@]1(C)C(=O)[C@H](O)C3=C(C)[C@@H](OC(=O)[C@H](O)[C@@H](NC(=O)OC(C)(C)C)c4ccccc4)C[C@@](O)([C@@H](OC(=O)c4ccccc4)[C@H]21)C3(C)C [Docetaxel]
sphere formation, dose-response (h676 GSCs [3]): most potent compounds
sphere formation, dose-response (h543 GSCs): most potent compounds
inhibition of TRF1 protein levels / TRF1 modulation in the screening (TRF1 [4]): inhibit TRF1 protein levels; also recorded: novel TRF1 modulators
modulation of TRF1 levels by tubulin agents (validation) (TRF1 [4]): more strongly
degree of TRF1 inhibition (TRF1 protein levels by western blot) (TRF1 [5]): medium TRF1 modulators
dependence on p-AKT (p-AKT activation) (p-AKT): act independently of p-AKT
synergic effect in combination with PI3Ki (ETP-47037) (h676 GSCs [6]): significant synergic effect

Cc1cnc2c(N3CCOCC3)nc(-c3ccc(NC(=O)Nc4ccc(C(=O)N5CCN(C)CC5)cc4)cc3)cn12 [ETP-47228]
TRF1 foci (immunofluorescence) (TRF1 [1]): effectively reduced
total TRF1 protein levels (western blot) (TRF1 [2]): effectively reduced
diameter of neurospheres (U251 cells): strong reduction
number of neurospheres (U251 cells): strong reduction
diameter of spheres (h676 GSCs [3]): significant drastic reduction
number of spheres (h676 GSCs [3]): significant drastic reduction
diameter of spheres (h543 GSCs): significant drastic reduction
number of spheres (h543 GSCs): significant drastic reduction
growth of already established lung adenocarcinomas [7]: effectively impair the growth

CN1CC[C@H](c2c(O)cc(O)c3c(=O)cc(-c4ccccc4Cl)oc23)[C@H](O)C1 [Flavopiridol]
inhibition of TRF1 protein levels / TRF1 modulation in the screening (TRF1 [4]): inhibit TRF1 protein levels; also recorded: novel TRF1 modulators
degree of TRF1 inhibition (TRF1 protein levels by western blot) (TRF1 [5]): medium TRF1 modulators
dependence on p-AKT (p-AKT activation) (p-AKT): act independently of p-AKT

C[C@@H](Oc1cc(-n2cnc3ccc(CN4CCN(C)CC4)cc32)sc1C(N)=O)c1ccccc1C(F)(F)F [GSK461364]
inhibition of TRF1 protein levels / TRF1 modulation in the screening (TRF1 [4]): inhibit TRF1 protein levels; also recorded: novel TRF1 modulators
degree of TRF1 inhibition (TRF1 protein levels by western blot) (TRF1 [5]): no ability to downregulate TRF1
dependence on p-AKT (p-AKT activation) (p-AKT): p-AKT dependent

Nc1ccn([C@@H]2O[C@H](CO)[C@@H](O)C2(F)F)c(=O)n1 [Gemcitabine]
sphere formation, dose-response (h676 GSCs [3]): most potent compounds
sphere formation, dose-response (h543 GSCs): most potent compounds
inhibition of TRF1 protein levels / TRF1 modulation in the screening (TRF1 [4]): inhibit TRF1 protein levels; also recorded: novel TRF1 modulators
degree of TRF1 inhibition (TRF1 protein levels by western blot) (TRF1 [5]): medium TRF1 modulators
dependence on p-AKT (p-AKT activation) (p-AKT): act independently of p-AKT
synergic effect in combination with PI3Ki (ETP-47037) (h676 GSCs [6]): significant synergic effect

COc1ccc(-c2ccc3c(N4CCOCC4)nc(N4C[C@@H](C)O[C@@H](C)C4)nc3n2)cc1CO [KU-0063794]
inhibition of TRF1 protein levels / TRF1 modulation in the screening (TRF1 [4]): inhibit TRF1 protein levels; also recorded: novel TRF1 modulators
degree of TRF1 inhibition (TRF1 protein levels by western blot) (TRF1 [5]): medium TRF1 modulators
dependence on p-AKT (p-AKT activation) (p-AKT): p-AKT dependent

O=C(Nc1ccc2[nH]nc(-c3ccncc3)c2c1)[C@@H]1CCN(CC(=O)N2CCN(c3ccc(-c4ncccn4)cc3)CC2)C1 [SCH772984]
inhibition of TRF1 protein levels / TRF1 modulation in the screening (TRF1 [4]): novel TRF1 modulators
inhibition of TRF1 protein levels / TRF1 modulation in the screening (TRF1 [4]; listed as ERKi): inhibit TRF1 protein levels
degree of TRF1 inhibition (TRF1 protein levels by western blot) (TRF1 [5]): potent TRF1 modulators
dependence on p-AKT (p-AKT activation) (p-AKT): act independently of p-AKT
synergic effect in combination with PI3Ki (ETP-47037) (h676 GSCs [6]): significant synergic effect

CC(=O)O[C@H]1C(=O)[C@@]2(C)[C@H]([C@H](OC(=O)c3ccccc3)[C@]3(O)C[C@H](OC(=O)[C@H](O)[C@@H](NC(=O)c4ccccc4)c4ccccc4)C(C)=C1C3(C)C)[C@]1(OC(C)=O)CO[C@@H]1C[C@@H]2O [paclitaxel]
modulation of TRF1 levels by tubulin agents (validation) (TRF1 [4]): more strongly
